pKi: −log10 of the molar value.
How the values were obtained:
[1] = molecular target: Sigma non-opioid intracellular receptor 1 (Cavia porcellus, UniProt Q60492); assay: Displacement of [3H](+)-pentazocine from sigma 1 receptor in guinea pig brain assessed as inhibition constant by competition binding assay; format: tissue-based
[2] = molecular target: T1, Sigma intracellular receptor 2 (Rattus norvegicus, UniProt Q5U3Y7); assay: Displacement of [3H]-ditolylguanidine from sigma 2 receptor/TMEM97 in rat PC-12 cells assessed as inhibition constant in the presence of (+)-pentazocine by competition binding assay; format: cell-based
T1 sequence (Q5U3Y7 whole entry): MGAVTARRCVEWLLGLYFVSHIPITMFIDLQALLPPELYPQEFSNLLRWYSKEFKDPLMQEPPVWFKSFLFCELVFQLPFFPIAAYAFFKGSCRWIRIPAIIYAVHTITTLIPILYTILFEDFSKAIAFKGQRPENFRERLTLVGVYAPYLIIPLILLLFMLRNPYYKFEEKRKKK

[3] = Selectivity ratio of Ki for displacement of [3H](+)-pentazocine from sigma 1 receptor in guinea pig brain to Ki for displacement of [3H]-ditolylguanidine from sigma 2 receptor/TMEM97 in rat PC-12 cells; format: cell-based
[4] = molecular target: T2, Sigma intracellular receptor 2 (Homo sapiens, UniProt Q5BJF2); assay: Displacement of [3H]-ditolylguanidine from human sigma 2 receptor/TMEM97 transfected in HEK293 cells assessed as inhibition constant in the presence of (+)-pentazocine by competition binding assay; format: cell-based
[5] = molecular target: T2, Sigma intracellular receptor 2; assay: Potency index, ratio of JVW-1601 Ki to test compound Ki for displacement of [3H]-ditolylguanidine from human sigma 2 receptor/TMEM97 transfected in HEK293 cells assessed as inhibition constant in the presence of (+)-pentazocine by competition binding assay; format: cell-based
[6] = molecular target: T3, Sigma non-opioid intracellular receptor 1 (Homo sapiens, UniProt Q99720); assay: Displacement of [3H](+)-pentazocine from human sigma 1 receptor transfected in HEK293 cells assessed as inhibition constant by competition binding assay; format: cell-based
[7] = molecular target: T3, Sigma non-opioid intracellular receptor 1; assay: Binding affinity to sigma 1 receptor (unknown origin) assessed as inhibition constant
[8] = molecular target: T2, Sigma intracellular receptor 2; assay: Binding affinity to sigma 2 receptor/TMEM97 (unknown origin) assessed as inhibition constant
[9] = molecular target: Muscarinic acetylcholine receptor M2 (Homo sapiens, UniProt P08172); assay: Binding affinity at human muscarinic M2 receptor assessed as inhibition constant
[10] = molecular target: GABA-A receptor; anion channel; assay: Binding affinity at human GABA A receptor assessed as inhibition constant; format: protein-complex assay
[11] = molecular target: Beta-1 adrenergic receptor (Homo sapiens, UniProt P08588); assay: Binding affinity to human beta 1 adrenergic receptor assessed as inhibition constant
[12] = Ratio of drug concentration in mouse brain to plasma at 10 mg/kg, ip measured after 4 hrs; format: ADME, organism-based; settings: read-out: BPR
D(2) dopamine receptor = D(2) dopamine receptor (Homo sapiens, UniProt P14416); assay: Binding affinity to human dopamine D2 receptor assessed as inhibition constant
[13] = molecular target: Sodium-dependent serotonin transporter (Homo sapiens, UniProt P31645); assay: Binding affinity at human SERT assessed as inhibition constant
[14] = Drug concentration in mouse brain at 10 mg/kg, ip measured after 4 hrs; format: ADME, organism-based; settings: read-out: Ct
[15] = molecular target: Alpha-2C adrenergic receptor (Homo sapiens, UniProt P18825); assay: Binding affinity to human alpha 2C adrenergic receptor assessed as inhibition constant
[16] = molecular target: Delta-type opioid receptor (Homo sapiens, UniProt P41143); assay: Binding affinity at human DOR assessed as inhibition constant
[17] = molecular target: Serotonin 3 (5-HT3) receptor; assay: Binding affinity to human 5HT3 receptor assessed as inhibition constant; format: protein-complex assay
Translocator protein = Translocator protein (Homo sapiens, UniProt P30536); assay: Binding affinity at human PBR assessed as inhibition constant
[18] = Ratio of unbound drug concentration in mouse brain to plasma at 10 mg/kg, ip measured after 4 hrs; format: ADME, organism-based; settings: read-out: K(p,uu,brain)
[19] = molecular target: 5-hydroxytryptamine receptor 1E (Homo sapiens, UniProt P28566); assay: Binding affinity to human 5HT1E receptor assessed as inhibition constant
[20] = molecular target: Beta-3 adrenergic receptor (Homo sapiens, UniProt P13945); assay: Binding affinity to human beta 3 adrenergic receptor assessed as inhibition constant
P-glycoprotein (MDR1) = assay: Efflux ratio of permeability in MDCK-MDR1 cells expressing P-glycoprotein; format: ADME, cell-based, Canis lupus familiaris; settings: dog
[21] = molecular target: Kappa-type opioid receptor (Homo sapiens, UniProt P41145); assay: Binding affinity at human KOR assessed as inhibition constant
[22] = Selectivity ratio of Ki for displacement of [3H]-ditolylguanidine from human sigma 2 receptor/TMEM97 transfected in HEK293 cells to Ki for displacement of [3H]-ditolylguanidine from sigma 2 receptor/TMEM97 in rat PC-12 cells; format: cell-based
[23] = molecular target: Muscarinic acetylcholine receptor M3 (Homo sapiens, UniProt P20309); assay: Binding affinity at human muscarinic M3 receptor assessed as inhibition constant
[24] = molecular target: Sodium-dependent noradrenaline transporter (Homo sapiens, UniProt P23975); assay: Binding affinity at human Norepinephrine transporter assessed as inhibition constant
[25] = Selectivity ratio of Ki for displacement of [3H](+)-pentazocine from sigma 1 receptor in guinea pig brain to Ki for displacement of [3H](+)-pentazocine from human sigma 1 receptor transfected in HEK293 cells; format: cell-based
[26] = Binding affinity to human Ca2+ ion channel assessed as inhibition constant
[27] = molecular target: Muscarinic acetylcholine receptor M1 (Homo sapiens, UniProt P11229); assay: Binding affinity at human muscarinic M1 receptor assessed as inhibition constant
[28] = molecular target: Muscarinic acetylcholine receptor M4 (Homo sapiens, UniProt P08173); assay: Binding affinity at human muscarinic M4 receptor assessed as inhibition constant
[29] = Half-life in mouse at 10 mg/kg, ip; format: ADME, organism-based; settings: in vivo
[30] = molecular target: Alpha-1B adrenergic receptor (Homo sapiens, UniProt P35368); assay: Binding affinity to human alpha 1B adrenergic receptor assessed as inhibition constant
Mu-type opioid receptor = Mu-type opioid receptor (Homo sapiens, UniProt P35372); assay: Binding affinity at human MOR assessed as inhibition constant
[31] = molecular target: Beta-2 adrenergic receptor (Homo sapiens, UniProt P07550); assay: Binding affinity to human beta 2 adrenergic receptor assessed as inhibition constant

T2 sequence (Q5BJF2 whole entry): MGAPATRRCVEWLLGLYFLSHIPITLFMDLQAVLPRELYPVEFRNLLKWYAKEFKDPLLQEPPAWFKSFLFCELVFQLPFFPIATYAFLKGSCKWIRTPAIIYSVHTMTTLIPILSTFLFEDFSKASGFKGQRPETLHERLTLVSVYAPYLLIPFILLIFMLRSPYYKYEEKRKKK
T3 sequence (Q99720 whole entry): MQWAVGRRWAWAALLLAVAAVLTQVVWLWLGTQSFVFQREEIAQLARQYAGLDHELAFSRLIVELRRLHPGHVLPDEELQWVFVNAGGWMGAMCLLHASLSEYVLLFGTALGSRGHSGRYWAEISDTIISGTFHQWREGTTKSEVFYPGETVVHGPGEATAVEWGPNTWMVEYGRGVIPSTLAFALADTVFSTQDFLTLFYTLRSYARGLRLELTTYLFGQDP
Sigma non-opioid intracellular receptor 1 (Cavia porcellus, UniProt Q60492), sequence (Q60492 whole entry): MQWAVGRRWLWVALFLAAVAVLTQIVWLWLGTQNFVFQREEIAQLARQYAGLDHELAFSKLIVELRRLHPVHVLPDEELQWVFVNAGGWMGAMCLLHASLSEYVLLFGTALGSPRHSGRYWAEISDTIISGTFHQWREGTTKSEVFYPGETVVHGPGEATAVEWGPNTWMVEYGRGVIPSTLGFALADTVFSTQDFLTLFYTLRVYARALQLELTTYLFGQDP
Delta-type opioid receptor, sequence (P41143 whole entry): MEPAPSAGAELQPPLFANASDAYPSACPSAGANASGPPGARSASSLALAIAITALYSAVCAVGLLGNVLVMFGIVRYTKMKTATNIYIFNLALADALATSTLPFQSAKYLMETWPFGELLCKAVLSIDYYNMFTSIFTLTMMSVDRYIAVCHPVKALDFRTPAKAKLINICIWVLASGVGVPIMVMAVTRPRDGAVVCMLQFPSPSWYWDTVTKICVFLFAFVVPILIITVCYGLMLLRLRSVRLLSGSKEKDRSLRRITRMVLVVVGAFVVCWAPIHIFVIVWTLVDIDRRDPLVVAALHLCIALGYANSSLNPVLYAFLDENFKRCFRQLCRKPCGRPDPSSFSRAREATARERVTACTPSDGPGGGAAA
Beta-1 adrenergic receptor, sequence (P08588 whole entry): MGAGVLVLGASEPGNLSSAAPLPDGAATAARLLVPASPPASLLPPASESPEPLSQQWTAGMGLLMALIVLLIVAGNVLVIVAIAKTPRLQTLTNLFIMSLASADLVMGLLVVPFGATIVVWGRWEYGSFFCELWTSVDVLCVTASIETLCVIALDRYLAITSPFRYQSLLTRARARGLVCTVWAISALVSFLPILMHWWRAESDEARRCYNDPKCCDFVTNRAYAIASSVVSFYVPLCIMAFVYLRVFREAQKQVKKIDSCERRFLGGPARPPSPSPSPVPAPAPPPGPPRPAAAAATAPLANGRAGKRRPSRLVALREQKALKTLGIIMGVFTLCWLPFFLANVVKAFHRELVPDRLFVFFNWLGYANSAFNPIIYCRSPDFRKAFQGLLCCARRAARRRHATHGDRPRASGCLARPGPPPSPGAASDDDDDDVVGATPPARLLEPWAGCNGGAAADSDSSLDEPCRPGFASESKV
Kappa-type opioid receptor, sequence (P41145 whole entry): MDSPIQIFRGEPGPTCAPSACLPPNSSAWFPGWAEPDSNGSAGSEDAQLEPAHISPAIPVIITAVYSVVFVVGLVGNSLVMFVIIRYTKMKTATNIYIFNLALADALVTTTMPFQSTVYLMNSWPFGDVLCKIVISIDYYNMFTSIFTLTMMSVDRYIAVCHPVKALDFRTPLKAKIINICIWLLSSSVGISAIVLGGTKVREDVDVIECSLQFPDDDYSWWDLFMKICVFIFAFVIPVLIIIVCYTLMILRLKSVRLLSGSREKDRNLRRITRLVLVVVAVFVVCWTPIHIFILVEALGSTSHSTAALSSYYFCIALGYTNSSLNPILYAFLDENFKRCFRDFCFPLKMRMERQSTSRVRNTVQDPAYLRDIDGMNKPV
Sodium-dependent noradrenaline transporter, sequence (P23975 whole entry): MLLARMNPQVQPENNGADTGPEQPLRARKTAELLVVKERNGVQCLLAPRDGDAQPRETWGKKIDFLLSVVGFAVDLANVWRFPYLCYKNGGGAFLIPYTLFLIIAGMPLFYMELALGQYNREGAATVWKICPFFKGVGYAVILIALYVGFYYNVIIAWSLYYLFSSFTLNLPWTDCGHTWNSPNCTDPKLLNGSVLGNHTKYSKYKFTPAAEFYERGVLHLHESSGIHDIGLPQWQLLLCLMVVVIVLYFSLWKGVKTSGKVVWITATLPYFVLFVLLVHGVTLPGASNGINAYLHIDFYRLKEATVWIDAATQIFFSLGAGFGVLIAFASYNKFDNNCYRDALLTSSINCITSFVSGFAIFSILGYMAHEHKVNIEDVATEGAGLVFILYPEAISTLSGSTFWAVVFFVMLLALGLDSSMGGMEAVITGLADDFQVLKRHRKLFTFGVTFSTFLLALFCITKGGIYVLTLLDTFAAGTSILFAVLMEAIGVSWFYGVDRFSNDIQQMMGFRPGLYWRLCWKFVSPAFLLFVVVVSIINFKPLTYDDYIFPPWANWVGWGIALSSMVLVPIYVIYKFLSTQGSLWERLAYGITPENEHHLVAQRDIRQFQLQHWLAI
Alpha-1B adrenergic receptor, sequence (P35368 whole entry): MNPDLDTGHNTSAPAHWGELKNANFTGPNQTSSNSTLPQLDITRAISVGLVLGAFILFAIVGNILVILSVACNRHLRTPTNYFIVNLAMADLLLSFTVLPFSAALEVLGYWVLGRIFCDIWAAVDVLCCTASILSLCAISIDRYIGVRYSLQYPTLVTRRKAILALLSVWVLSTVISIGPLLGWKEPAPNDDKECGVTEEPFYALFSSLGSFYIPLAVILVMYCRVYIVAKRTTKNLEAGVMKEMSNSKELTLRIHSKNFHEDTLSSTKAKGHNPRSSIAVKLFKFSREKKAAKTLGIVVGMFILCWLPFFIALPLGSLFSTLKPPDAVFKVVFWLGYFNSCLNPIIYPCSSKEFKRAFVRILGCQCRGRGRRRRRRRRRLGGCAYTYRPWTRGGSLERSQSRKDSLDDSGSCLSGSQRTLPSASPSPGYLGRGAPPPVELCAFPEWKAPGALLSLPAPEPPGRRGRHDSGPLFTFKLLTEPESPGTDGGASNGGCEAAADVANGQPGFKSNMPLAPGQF
Muscarinic acetylcholine receptor M1, sequence (P11229 whole entry): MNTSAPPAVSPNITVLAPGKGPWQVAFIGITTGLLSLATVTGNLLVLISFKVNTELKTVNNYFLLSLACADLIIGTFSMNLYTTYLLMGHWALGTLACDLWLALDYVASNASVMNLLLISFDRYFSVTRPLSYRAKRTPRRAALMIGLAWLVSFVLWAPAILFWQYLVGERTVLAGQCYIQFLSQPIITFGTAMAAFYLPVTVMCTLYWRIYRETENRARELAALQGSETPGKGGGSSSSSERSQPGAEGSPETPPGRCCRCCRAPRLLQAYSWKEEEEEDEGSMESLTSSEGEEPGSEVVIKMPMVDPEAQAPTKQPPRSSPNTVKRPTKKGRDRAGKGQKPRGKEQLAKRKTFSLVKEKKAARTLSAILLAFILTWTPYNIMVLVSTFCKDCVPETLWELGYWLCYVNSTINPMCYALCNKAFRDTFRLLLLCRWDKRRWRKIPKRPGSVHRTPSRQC
Beta-3 adrenergic receptor, sequence (P13945 whole entry): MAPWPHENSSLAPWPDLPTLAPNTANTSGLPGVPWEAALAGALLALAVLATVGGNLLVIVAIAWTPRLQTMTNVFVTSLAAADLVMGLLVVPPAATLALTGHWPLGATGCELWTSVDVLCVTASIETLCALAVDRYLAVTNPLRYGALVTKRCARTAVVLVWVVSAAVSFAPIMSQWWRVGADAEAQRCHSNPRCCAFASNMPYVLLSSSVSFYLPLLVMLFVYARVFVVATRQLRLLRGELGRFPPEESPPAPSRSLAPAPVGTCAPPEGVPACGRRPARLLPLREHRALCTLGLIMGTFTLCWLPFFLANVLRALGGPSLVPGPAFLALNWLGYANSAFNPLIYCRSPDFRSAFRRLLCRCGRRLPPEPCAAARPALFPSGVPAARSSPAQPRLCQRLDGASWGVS
Alpha-2C adrenergic receptor, sequence (P18825 whole entry): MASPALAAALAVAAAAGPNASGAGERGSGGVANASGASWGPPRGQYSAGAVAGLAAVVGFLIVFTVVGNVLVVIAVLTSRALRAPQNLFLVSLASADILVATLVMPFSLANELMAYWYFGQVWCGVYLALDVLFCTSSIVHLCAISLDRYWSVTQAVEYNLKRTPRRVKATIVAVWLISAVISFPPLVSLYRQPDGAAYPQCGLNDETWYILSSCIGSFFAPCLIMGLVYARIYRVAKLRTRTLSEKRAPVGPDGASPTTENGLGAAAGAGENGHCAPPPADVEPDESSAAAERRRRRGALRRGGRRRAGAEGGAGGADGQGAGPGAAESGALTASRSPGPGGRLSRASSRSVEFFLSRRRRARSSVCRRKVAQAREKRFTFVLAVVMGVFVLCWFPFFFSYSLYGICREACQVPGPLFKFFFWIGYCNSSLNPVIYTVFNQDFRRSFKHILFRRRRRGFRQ
Muscarinic acetylcholine receptor M4, sequence (P08173 whole entry): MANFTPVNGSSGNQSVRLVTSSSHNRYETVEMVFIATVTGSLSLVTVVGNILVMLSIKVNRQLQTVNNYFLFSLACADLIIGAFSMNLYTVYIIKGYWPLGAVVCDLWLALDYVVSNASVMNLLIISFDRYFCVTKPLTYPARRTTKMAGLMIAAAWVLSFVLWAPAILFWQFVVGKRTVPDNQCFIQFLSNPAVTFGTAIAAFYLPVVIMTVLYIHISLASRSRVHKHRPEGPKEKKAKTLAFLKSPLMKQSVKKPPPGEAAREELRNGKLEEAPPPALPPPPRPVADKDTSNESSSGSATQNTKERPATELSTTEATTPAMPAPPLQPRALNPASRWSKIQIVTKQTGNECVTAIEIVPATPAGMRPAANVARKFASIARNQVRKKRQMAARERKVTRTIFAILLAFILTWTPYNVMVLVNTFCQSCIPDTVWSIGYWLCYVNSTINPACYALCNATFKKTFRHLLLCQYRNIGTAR

Q: With `CN(C(=O)OCc1ccccc1)C1CCCc2ccc(N3CCN(C4CCCC4)CC3)cc21` (configuration not stated) as the compound, how does the pKi [1] read?
A: The pKi was 7.07.

Q: What about the pKi [2] of the same compound?
A: Its pKi is 8.68.

Q: With `CN1CCN(c2ccc3c(c2)C(N(C)C(=O)OCc2ccccc2)CCC3)CC1` (configuration not stated) as the compound, how does the pKi [1] read?
A: Its pKi is 5.53.

Q: And the pKi [2]?
A: Its pKi is 6.55.

Q: With `CCCN1CCN(c2ccc3c(c2)C(OC(=O)CCc2ccccc2)CCC3)CC1` (configuration not stated) as the compound, how does the pKi [1] read?
A: Its pKi is 7.48.

Q: What about the pKi [2] of the same compound?
A: Its pKi is 7.60.

Q: With `CCOC(=O)CN1CCN(c2ccc3c(c2)C(N(C)C(=O)OCc2ccccc2)CCC3)CC1` (configuration not stated) as the compound, how does the pKi [1] read?
A: The pKi was < 5.00.

Q: What about the pKi [2] of the same compound?
A: Its pKi is 6.05.

Q: For `CN(C(=O)OCc1ccccc1)C1CCCc2ccc(N3CCN(C4CCCCC4)CC3)cc21` (configuration not stated), which Ratio Ki [3] is on record?
A: Its Ratio Ki is 7.6.

Q: And the pKi [1]?
A: Its pKi is 7.80.

Q: And the pKi [2]?
A: The pKi was 8.68.

Q: With `CCCN1CCN(c2ccc3c(c2)C(N(CC)C(=O)OCc2ccccc2)CCC3)CC1` (configuration not stated) as the compound, how does the pKi [1] read?
A: The pKi was 6.49.

Q: And the pKi [2]?
A: Its pKi is 8.34.

Q: With `CCCN1CCN(c2ccc3c(c2)C(OCCCc2ccccc2)CCC3)CC1` (configuration not stated) as the compound, how does the pKi [1] read?
A: The pKi was 7.68.

Q: And the pKi [4]?
A: The pKi was 7.77.

Q: What does the source list for `CCCN1CCN(c2ccc3c(c2)C(N(C)C(=O)CCc2ccccc2)CCC3)CC1` (configuration not stated)?
A: pKi [1]: 6.01; Ratio Ki [5]: 2; pKi [4]: 7.77

Q: Which results are given for `CCCN1CCN(c2ccc3c(c2)CCCC3N(C)C(=O)OCc2ccccc2)CC1` (configuration not stated)?
A: pKi [1]: 7.40; pKi [2]: 7.89

Q: For `CCCN1CCN(c2ccc3c(c2)C(N(C)C(=O)/C=C/c2ccccc2)CCC3)CC1` (configuration not stated), which Ratio Ki [5] is on record?
A: Its Ratio Ki is 3.4.

Q: What about the pKi [6] of the same compound?
A: The pKi was 6.71.

Q: What about the pKi [4] of the same compound?
A: The pKi was 8.02.

Q: What does the source list for `CN(C(=O)OCc1ccccc1)C1CCCc2ccc(N3CCN(CCCO)CC3)cc21` (configuration not stated)?
A: pKi [1]: 6.32; pKi [2]: 7.68

Q: Which results are given for `CCCN1CCN(c2ccc3c(c2)C(OC/C=C/c2ccccc2)CCC3)CC1` (configuration not stated)?
A: pKi [1]: 6.85; pKi [4]: 7.82

Q: With `CC(C)N1CCN(c2ccc3c(c2)C(N(C)C(=O)OCc2ccccc2)CCC3)CC1` (configuration not stated) as the compound, how does the pKi [1] read?
A: The pKi was 6.65.

Q: And the pKi [2]?
A: Its pKi is 8.08.

Q: With `CCCN1CCN(c2ccc3c(c2)C(N(CCC(=O)OCC)C(=O)OCc2ccccc2)CCC3)CC1` (configuration not stated) as the compound, how does the pKi [1] read?
A: Its pKi is 6.73.

Q: And the pKi [4]?
A: The pKi was 7.46.

Q: What does the source list for `COCCN1CCN(c2ccc3c(c2)C(N(C)C(=O)OCc2ccccc2)CCC3)CC1` (configuration not stated)?
A: pKi [1]: 5.98; pKi [4]: 6.89

Q: Which results are given for `CCOC(=O)CCN1CCN(c2ccc3c(c2)C(N(C)C(=O)OCc2ccccc2)CCC3)CC1` (configuration not stated)?
A: pKi [1]: 5.78; pKi [2]: 8.35

Q: With `CCN1CCN(c2ccc3c(c2)C(N(C)C(=O)OCc2ccccc2)CCC3)CC1` (configuration not stated) as the compound, how does the pKi [1] read?
A: Its pKi is 6.05.

Q: What about the pKi [2] of the same compound?
A: The pKi was 7.46.

Q: With `CCCN1CCN(c2ccc3c(c2)C(N(CCC)C(=O)OCc2ccccc2)CCC3)CC1` (configuration not stated) as the compound, how does the pKi [1] read?
A: Its pKi is 6.70.

Q: And the pKi [2]?
A: Its pKi is 8.03.

Q: With `CCCN1CCN(c2ccc3c(c2)C(N(CCCCCCCCCCCN)C(=O)OCc2ccccc2)CCC3)CC1` (configuration not stated) as the compound, how does the pKi [2] read?
A: The pKi was 7.78.

Q: What does the source list for `Clc1ccc2c(c1)C1CC2CCCN1CCc1ccccc1` (configuration not stated)?
A: pKi [7]: 6.61; pKi [8]: 7.64

Q: What does the source list for `CCCN1CCN(c2ccc3c(c2)C(N(C)C(=O)OCc2ccccc2)CCC3)CC1` (configuration not stated)?
A: pKi [9]: < 5.00; pKi [10]: < 5.00; pKi [11]: < 5.00; Ratio Ki [3]: 36; Kp at 4 h [12]: 2.8; pKi (D(2) dopamine receptor): < 5.00; pKi [1]: 6.70; pKi [13]: < 5.00; concentration at 4 h [14]: 104 nM; pKi [15]: < 5.00; pKi [16]: < 5.00; pKi [17]: < 5.00; pKi (Translocator protein): 5.08; Kp uu at 4 h [18]: 0.36; pKi [6]: 7.09; pKi [19]: < 5.00; pKi [20]: < 5.00; efflux ratio (P-glycoprotein (MDR1)): 1; pKi [21]: < 5.00; Ratio Ki [22]: 6; pKi [23]: < 5.00; pKi [24]: < 5.00; Ratio Ki [25]: 2.5; pKi [26]: < 5.00; pKi [27]: < 5.00; pKi [28]: < 5.00; half-life [29]: 1.2 h; pKi [2]: 8.26; pKi [30]: < 5.00; pKi (Mu-type opioid receptor): < 5.00; pKi [4]: 7.48; pKi [31]: < 5.00

Q: Which results are given for `CCN(CC)C(=O)CCN1CCN(c2ccc3c(c2)C(N(C)C(=O)OCc2ccccc2)CCC3)CC1` (configuration not stated)?
A: pKi [1]: 5.68; pKi [2]: 8.14

Q: With `CCCN1CCN(c2ccc3c(c2)C(N(C)C(=O)Cc2ccccc2)CCC3)CC1` (configuration not stated) as the compound, how does the pKi [6] read?
A: Its pKi is 6.73.

Q: And the pKi [4]?
A: Its pKi is 7.28.

Q: With `CCCN1CCN(c2cccc3c2CCCC3N(C)C(=O)OCc2ccccc2)CC1` (configuration not stated) as the compound, how does the pKi [1] read?
A: Its pKi is 7.92.

Q: And the pKi [2]?
A: Its pKi is 7.59.

Q: What does the source list for `CCCN1CCN(c2ccc3c(c2)C(N(CCCO)C(=O)OCc2ccccc2)CCC3)CC1` (configuration not stated)?
A: pKi [1]: 6.60; pKi [4]: 6.87

Q: What does the source list for `CN(C(=O)OCc1ccccc1)C1CCCc2ccc(N3CCN(C4CCC4)CC3)cc21` (configuration not stated)?
A: Ratio Ki [3]: 41; pKi [1]: 6.58; pKi [2]: 7.92

Q: What does the source list for `CCCN1CCN(c2ccc3c(c2)C(OCc2ccccc2)CCC3)CC1` (configuration not stated)?
A: pKi [1]: 6.98; pKi [2]: 7.30

Reference: ChEMBL document CHEMBL5338720, “Targeting σ2R/TMEM97 with novel aminotetralins” (Eur J Med Chem, 2022)
